Patent US20250339399A1, “SUPRAMOLECULAR SELF-ASSEMBLY SYSTEM” (Beijing Creatron Institute of Pharmaceutical Research Co., …, priority 2022, published 2025)

Tests used:
[1] = cited from earlier work
[2] = Binary supramolecular self-assembly systems of polymer and target: guest concentration over incubation time (Comparative Example 2); format: physicochemical; details: for Concentration of guest molecule in solution / Times that of the initial medium: 6 h
Description: Experiments were conducted according to the steps in Comparative Example 1, and quantitative analysis was carried out using the analytical method for each target to investigate the regulation ability […] stacking.

[3] = Guest molecule concentration after incubation in initial medium without polymer (Comparative Example 1); format: physicochemical; details: 37° C.
Outline: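 Dissolved guest content measured by HPLC of centrifuged supernatants (37° C., 13000 rpm, 5 min) sampled at 0.5 h, 3 h and 6 h. Incubation was polymer-free at 37° C.±0.5° C. in buffers of pH 2.0-7.4; nominal loading was set by maximum clinical dose.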

[4] = Binary (carrier), ternary and quaternary supramolecular self-assembly systems of polymer, carrier building block and target: guest concentration over incubation time (Examples 1-56); format: physicochemical
Outline: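 Targets were incubated at 37 °C in pH 2.0–7.4 buffers with 0.5% polymer alone or with carrier building blocks, after 0.5 h sonication for ternary systems, and shaken at 200 rpm. Samples at 0.5–6 h were centrifuged and diluted ≥10-fold, and dissolved target was quantified by HPLC; surfactant was added if needed.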

[5] = binary system with 0.5% polymer 101, incubation 0.5 h
[6] = binary system with 0.5% polymer 101, incubation 3 h
[7] = binary system with 0.5% polymer 101, incubation 6 h
[8] = binary system with 0.5% polymer 102, incubation 0.5 h
[9] = binary system with 0.5% polymer 102, incubation 3 h
[10] = binary system with 0.5% polymer 102, incubation 6 h
[11] = binary system with 0.5% polymer 103, incubation 0.5 h
[12] = binary system with 0.5% polymer 103, incubation 3 h
[13] = binary system with 0.5% polymer 103, incubation 6 h
[14] = binary system with 0.5% polymer 104, incubation 0.5 h
[15] = binary system with 0.5% polymer 104, incubation 3 h
[16] = binary system with 0.5% polymer 104, incubation 6 h
[17] = binary system with 0.5% polymer 106, incubation 0.5 h
[18] = binary system with 0.5% polymer 106, incubation 3 h
[19] = binary system with 0.5% polymer 106, incubation 6 h
[20] = binary system with 0.5% polymer 107, incubation 0.5 h
[21] = binary system with 0.5% polymer 107, incubation 3 h
[22] = binary system with 0.5% polymer 107, incubation 6 h
[23] = quaternary: 0.25% 205 (102H+104) + 0.25% 313, 6 h
[24] = quaternary: 0.25% 205 (102H+104) + 0.25% 318, 6 h
[25] = quaternary: 204 (103E5+102H) + 301, % not stated, 6 h
[26] = ternary: 0.25% 102H + 0.1% 313, 6 h
[27] = ternary: 0.25% 102H + 0.25% 313, 6 h
[28] = ternary: 0.25% 102H + 1.0% 313, 6 h
[29] = ternary: 102H (0.25% where stated) + 301, carrier % not stated, 6 h
[30] = quaternary: 202 (102H+107) + 0.5% 301, 6 h
[31] = quaternary: 202 (102H+107) + 0.5% 302, 6 h
[32] = quaternary: 204 (102H+103E5) + 0.5% 301, 6 h
[33] = quaternary: 204 (102H+103E5) + 0.5% 302, 6 h
[34] = ternary: 0.25% 102H + 0.5% 301, 6 h
[35] = ternary: 0.25% 102H + 0.5% 302, 6 h

CC(=O)c1c(C)c2cnc(Nc3ccc(N4CCNCC4)cn3)nc2n(C2CCCC2)c1=O [Palbociclib]
LogD7.4 or Log P [1]: 1.31 | Concentration of the target in the solution measured after different incubation time [2, 5]: 163.1 µg/mL | Concentration of the target in the solution measured after different incubation time [2, 6]: 89.0 µg/mL | Concentration of the target in the solution measured after different incubation time [2, 7]: 85.5 µg/mL | Concentration of the target in the solution measured after different incubation time [2, 8]: 205.7 µg/mL | Concentration of the target in the solution measured after different incubation time [2, 9]: 167.0 µg/mL | Concentration of the target in the solution measured after different incubation time [2, 10]: 154.0 µg/mL | Concentration of the target in the solution measured after different incubation time [2, 11]: 259.9 µg/mL | Concentration of the target in the solution measured after different incubation time [2, 12]: 126.5 µg/mL | Concentration of the target in the solution measured after different incubation time [2, 13]: 109.6 µg/mL | Concentration of the target in the solution measured after different incubation time [2, 14]: 105.4 µg/mL | Concentration of the target in the solution measured after different incubation time [2, 15]: 156.4 µg/mL | Concentration of the target in the solution measured after different incubation time [2, 16]: 144.8 µg/mL | Concentration of the target in the solution measured after different incubation time [2, 17]: 131.3 µg/mL | Concentration of the target in the solution measured after different incubation time [2, 18]: 60.3 µg/mL | Concentration of the target in the solution measured after different incubation time [2, 19]: 58.2 µg/mL | Concentration of the target in the solution measured after different incubation time [2, 20]: 103.5 µg/mL | Concentration of the target in the solution measured after different incubation time [2, 21]: 32.0 µg/mL | Concentration of the target in the solution measured after different incubation time [2, 22]: 27.0 µg/mL | Concentration of guest molecule in solution ([2]; binary: 0.5% 102H): 154.0 µg/mL | Times that of the initial medium ([2]; binary: 0.5% 102H): 4.9 times | Concentration of guest molecule in solution ([2]; binary: 0.5% 103E5): 105.4 µg/mL | Times that of the initial medium ([2]; binary: 0.5% 103E5): 3.3 times | Concentration of guest molecule in solution ([2]; binary: 0.5% 104): 144.8 µg/mL | Times that of the initial medium ([2]; binary: 0.5% 104): 4.6 times | Concentration of guest molecule measured after different incubated time ([3]; 0.5 h, pH 6.8 phosphate buffer): 140.4 µg/mL | Concentration of guest molecule measured after different incubated time ([3]; 3 h, pH 6.8 phosphate buffer): 34.8 µg/mL | Concentration of guest molecule measured after different incubated time ([3]; 6 h, pH 6.8 phosphate buffer): 31.6 µg/mL | Increase of the concentration of the guest molecule ([4]; 0.25% 102H, 1.0% 313 compared to the 0.25% 313 system, 6 h): 16.4% | Concentration of guest molecule in solution ([4]; binary: 0.25% 301, 6 h): 77.0 µg/mL | Concentration of guest molecule in solution ([4]; binary: 0.25% 302, 6 h): 34.2 µg/mL | Concentration of guest molecule in solution ([4]; binary: 0.25% 310, 6 h): 279.8 µg/mL | Concentration of guest molecule in solution ([4]; binary: 0.25% 313, 6 h): 70.0 µg/mL | Concentration of guest molecule in solution ([4]; binary: 0.25% 318, 6 h): 60.5 µg/mL | Concentration of guest molecule in solution [4, 23]: 250.7 µg/mL | Times that of the initial medium [4, 23]: 7.9 times | Concentration of guest molecule in solution [4, 24]: 257.8 µg/mL | Times that of the initial medium [4, 24]: 8.2 times | Concentration of guest molecule in solution [4, 25]: 250.4 µg/mL | Times that of the initial medium [4, 25]: 7.9 times | Concentration of guest molecule in solution [4, 26]: 191.5 µg/mL | Times that of the initial medium [4, 26]: 6.1 times | Concentration of guest molecule in solution ([4]; ternary: 0.25% 102H + 0.25% 302, 6 h): 195.5 µg/mL | Concentration of guest molecule in solution ([4]; ternary: 0.25% 102H + 0.25% 310, 6 h): 44.8 µg/mL | Concentration of guest molecule in solution [4, 27]: 361.6 µg/mL | Times that of the initial medium [4, 27]: 11.4 times | Concentration of guest molecule in solution ([4]; ternary: 0.25% 102H + 0.25% 318, 6 h): 181.8 µg/mL | Concentration of guest molecule in solution [4, 28]: 420.8 µg/mL | Times that of the initial medium [4, 28]: 13.3 times | Concentration of guest molecule in solution ([4]; ternary: 0.25% 103E5 + 0.25% 302, 6 h): 102.3 µg/mL | Concentration of guest molecule in solution ([4]; ternary: 0.25% 104 + 0.25% 302, 6 h): 138.3 µg/mL | Concentration of guest molecule in solution [4, 29]: 126.9 µg/mL | Times that of the initial medium [4, 29]: 4.0 times

CNC(=O)c1cc(Oc2ccc(NC(=O)Nc3ccc(Cl)c(C(F)(F)F)c3)cc2)ccn1 [Sorafenib]
LogD7.4 or Log P [1]: 4.34 | Concentration of the target in the solution measured after different incubation time [2, 5]: 741.5 µg/mL | Concentration of the target in the solution measured after different incubation time [2, 6]: 751.6 µg/mL | Concentration of the target in the solution measured after different incubation time [2, 7]: 759.3 µg/mL | Concentration of the target in the solution measured after different incubation time [2, 8]: 770.6 µg/mL | Concentration of the target in the solution measured after different incubation time [2, 9]: 151.8 µg/mL | Concentration of the target in the solution measured after different incubation time [2, 10]: 102.9 µg/mL | Concentration of the target in the solution measured after different incubation time [2, 11]: 602.5 µg/mL | Concentration of the target in the solution measured after different incubation time [2, 12]: 61.5 µg/mL | Concentration of the target in the solution measured after different incubation time [2, 13]: 38.5 µg/mL | Concentration of the target in the solution measured after different incubation time [2, 14]: 108.9 µg/mL | Concentration of the target in the solution measured after different incubation time [2, 15]: 4.3 µg/mL | Concentration of the target in the solution measured after different incubation time [2, 16]: 3.7 µg/mL | Concentration of the target in the solution measured after different incubation time [2, 17]: 765.3 µg/mL | Concentration of the target in the solution measured after different incubation time [2, 18]: 571.3 µg/mL | Concentration of the target in the solution measured after different incubation time [2, 19]: 310.3 µg/mL | Concentration of the target in the solution measured after different incubation time [2, 20]: 784.3 µg/mL | Concentration of the target in the solution measured after different incubation time [2, 21]: 432.2 µg/mL | Concentration of the target in the solution measured after different incubation time [2, 22]: 244.4 µg/mL | Concentration of guest molecule in solution ([2]; binary: 0.5% 102H): 102.9 µg/mL | Times that of the initial medium ([2]; binary: 0.5% 102H): 18.4 times | Average concentration of guest molecule in solution ([2]; binary: 0.5% 102H, within 4 to 6 hours): 110 µg/mL | Concentration of guest molecule in solution ([2]; binary: 0.5% 103E5): 33.4 µg/mL | Times that of the initial medium ([2]; binary: 0.5% 103E5): 6.0 times | Concentration of guest molecule in solution ([2]; binary: 0.5% 107): 171.6 µg/mL | Times that of the initial medium ([2]; binary: 0.5% 107): 30.6 times | Concentration of guest molecule measured after different incubated time ([3]; 0.5 h, 0.1% SDS in pH 6.8 phosphate buffer): 98.5 µg/mL | Concentration of guest molecule measured after different incubated time ([3]; 3 h, 0.1% SDS in pH 6.8 phosphate buffer): 4.1 µg/mL | Concentration of guest molecule measured after different incubated time ([3]; 6 h, 0.1% SDS in pH 6.8 phosphate buffer): 4.4 µg/mL | Concentration of guest molecule in solution [4, 30]: 512.2 µg/mL | Times that of the initial medium [4, 30]: 91.3 times | Concentration of guest molecule in solution [4, 31]: 572.8 µg/mL | Times that of the initial medium [4, 31]: 102.1 times | Concentration of guest molecule in solution [4, 32]: 543.3 µg/mL | Times that of the initial medium [4, 32]: 96.8 times | Concentration of guest molecule in solution [4, 33]: 431.5 µg/mL | Times that of the initial medium [4, 33]: 76.9 times | Concentration of guest molecule in solution [4, 34]: 609.8 µg/mL | Times that of the initial medium [4, 34]: 108.7 times | Concentration of guest molecule in solution [4, 35]: 644.6 µg/mL | Times that of the initial medium [4, 35]: 115 times | Concentration of guest molecule in solution ([4]; ternary: 102H + 310, carrier % not stated, 6 h): 65.6 µg/mL | Concentration of guest molecule in solution ([4]; ternary: 102H + 310, 2 h): 903.1 µg/mL | Concentration of guest molecule in solution ([4]; ternary: 102H + 311, 4 h): 804.8 µg/mL | Concentration of guest molecule in solution ([4]; ternary: 102H + 311, 6 h): 246.9 µg/mL | Concentration of guest molecule in solution ([4]; ternary: 102H + 313, carrier % not given, 6 h): 634.8 µg/mL | Concentration of guest molecule in solution ([4]; ternary: 102H + 313, 4 h): 884.2 µg/mL | Concentration of guest molecule in solution ([4]; ternary: 102H + 318, carrier % not stated, 6 h): 115.4 µg/mL | Concentration of guest molecule in solution ([4]; ternary: 102H + 318, 2 h): 778.1 µg/mL
